Experimental data taken from paper PMC11173382, “In Vitro Investigations into the Potential Drug Interactions of Pseudoginsenoside DQ Mediated by Cytochrome P450 and Human Drug Transporters” (Molecules, 2024).

Columns and labels:
hOCT2 = molecular target: T1, hOCT2 (Homo sapiens, UniProt O15244); assay: Substrates uptake assay, S2-OCT2 cells (14C-TEA); format: in vitro ADME; settings: for Transport activity of OCT2 (main text: percentage inhibition): negative control = 100%
T1 construct: host or cells: S2-OCT2
T1 sequence (O15244 1-555): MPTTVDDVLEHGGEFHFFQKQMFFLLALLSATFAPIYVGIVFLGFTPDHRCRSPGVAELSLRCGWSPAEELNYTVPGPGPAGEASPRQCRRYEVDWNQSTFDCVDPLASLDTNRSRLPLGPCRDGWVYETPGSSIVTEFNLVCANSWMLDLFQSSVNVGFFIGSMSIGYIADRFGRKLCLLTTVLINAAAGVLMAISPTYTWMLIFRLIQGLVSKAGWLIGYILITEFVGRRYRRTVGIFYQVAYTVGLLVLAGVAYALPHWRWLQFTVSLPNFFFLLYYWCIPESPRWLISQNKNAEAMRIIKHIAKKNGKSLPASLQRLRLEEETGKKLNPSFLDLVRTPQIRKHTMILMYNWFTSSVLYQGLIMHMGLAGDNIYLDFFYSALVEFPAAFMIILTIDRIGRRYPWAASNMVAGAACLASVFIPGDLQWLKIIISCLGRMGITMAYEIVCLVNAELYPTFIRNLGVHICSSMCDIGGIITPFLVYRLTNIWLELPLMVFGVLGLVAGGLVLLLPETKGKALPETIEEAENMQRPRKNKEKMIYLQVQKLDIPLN
Description: (§1) Drug transporters mediate the cellular uptake and efflux of their substrates. Therefore, cell lines overexpressing a drug transporter can be utilized to investigate inhibitors of the transporter by assessing changes in substrate uptake. For each drug transporter, we selected a well-characterized inhibitor as the positive control. Radiolabeled substrates were used to indicate the decrease in transport efficiency when the drug transporters were inhibited by PDQ or the control inhibitors.
(§2) The concentrations of the control drugs and the substrates were stated in the assay details. Working solutions of the control inhibitors, the radiolabeled substrates, and each dose of PDQ were prepared at 200 times (200×) more concentrated solutions with DMSO for further dilution.
(§3) Transporter-overexpressed cell lines. Human organic anion transporter-overexpressed cell lines MDCKII-OAT1 and S2-OAT3, human organic anion transport polypeptide-overexpressed cell lines HEK293A-OATP1B1 and HEK293A-OATP1B3, human organic cation transporter 2-overexpressed cell line S2-OCT2, and human multi-drug resistance protein MDR1 (or P-gp)-overexpressed cell line MDCKII-MDR1 were gifts from Japan Fuji Biomedical Co., Ltd. (Fuji, Shizuoka Prefecture, Japan). Breast cancer resistance protein-overexpressed vesicles (sf9-BCRP vesicle) were purchased from GenoMembrane Co., Ltd. (Yokohama, Kanagawa, Japan).
(§4) Substrates uptake assay. In this assay, we studied the inhibition of PDQ against transporters OAT1, OAT3, OCT2, OATP1B1 and OATP1B3 with MDCKII-OAT1, S2-OAT3, S2-OCT2, HEK293A-OATP1B1and HEK293A-OATP1B3 cells, respectively. The radiolabeled substrates for OAT1, OAT3, OATP1B1, OATP1B3 and OCT2 were […], respectively (Table 5). Probenecid ([…]) was the positive control inhibitor of OAT1 and OAT3, while rifampicin ([…]) served as the control drug of OATP1B1 and OATP1B3. For OCT2, we used […] cimetidine to compare with the inhibitory effect of PDQ. Two times (2×) more concentrated working solutions of the drugs and the substrate were prepared with Dulbecco’s phosphate-buffered saline (DPBS, Gibco, Grand Island, NY, USA.). Then, an equal volume of 2× drug solution and 2× radiolabeled substrate solution were mixed as the working mix. All reagents were pre-warmed to 37 °C.
(§5) The cells were digested with 0.05% trypsin/EDTA. The density of the single-cell suspension was adjusted to 2.0 × 10^5 cells/mL for S2 cells and to 1.5 × 10^5 cells/mL for MDCK II and HEK293A cells. The cell suspension was then added to the reservoirs of the 24-well plate for culture until full confluency. The medium in the wells was removed, and the wells were washed with DPBS. Then, the plate was incubated for 10 min with pre-warmed DPBS in the wells. After removing DPBS, […] of working mix was added to each well to initiate the substrate uptake process. The reaction time was 5 min for S2-OCT2 cells, while the other four types of cells were incubated with the reaction mix for 2 min. Cold DPBS was used to terminate the substrate transportation. To each well, […] NaOH ([…]) was added to lyse the cells. Then, […] cell lysate was transferred to the counting vials, and 3 mL scintillation cocktail (Aquasol-2, PerkinElmer, Waltham, MA, USA) was added. […] Each sample was replicated three times (N = 3).
(§6) In = [100 × (U − U0)/(Uc − U0)]%(3)
(§7) The results were expressed as mean ± standard deviation (SD) and analyzed with GraphPad Prism 8.0 software (CA, USA). The IC50 of PDQ was curve-fitted with the FORECAST function. Statistical significance was calculated using a two-tailed test, and a p value < 0.05 was considered as significant.

hOAT3 = molecular target: T2, hOAT3 (Homo sapiens, UniProt Q8TCC7); assay: Substrates uptake assay, S2-OAT3 cells (3H-ES); format: in vitro ADME; settings: for Transport activity of OAT3 (main text: percentage inhibition): negative control = 100%
T2 sequence (Q8TCC7 1-542): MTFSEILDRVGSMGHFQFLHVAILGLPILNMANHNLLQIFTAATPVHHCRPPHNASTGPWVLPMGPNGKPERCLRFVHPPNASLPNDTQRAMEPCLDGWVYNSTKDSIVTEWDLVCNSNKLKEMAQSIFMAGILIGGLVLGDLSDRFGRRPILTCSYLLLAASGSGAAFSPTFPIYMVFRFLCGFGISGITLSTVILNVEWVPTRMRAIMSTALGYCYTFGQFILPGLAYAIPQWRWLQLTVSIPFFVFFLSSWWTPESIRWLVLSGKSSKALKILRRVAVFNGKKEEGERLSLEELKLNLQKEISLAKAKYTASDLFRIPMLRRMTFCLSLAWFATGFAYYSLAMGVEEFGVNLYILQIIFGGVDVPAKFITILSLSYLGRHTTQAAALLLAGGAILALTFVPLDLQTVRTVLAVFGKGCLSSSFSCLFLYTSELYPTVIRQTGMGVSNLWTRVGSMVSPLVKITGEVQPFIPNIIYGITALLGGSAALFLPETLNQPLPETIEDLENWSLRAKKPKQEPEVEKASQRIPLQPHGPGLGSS
Description: as §1, §2, §3, §4, §5, §6, §7

## CC(C)(O)[C@@H]1CC[C@@](C)([C@H]2CC[C@]3(C)[C@@H]2[C@H](O)C[C@@H]2[C@@]4(C)CC[C@H](O)C(C)(C)[C@@H]4CC[C@]23C)O1 [PDQ, (20S,24S)-dammar-20,24-epoxy-3β, 12β, 25-triol]
hOCT2; inhibitor 0.1 μM
  DPM (14C-TEA uptake by OCT2): 994.3±112.3 DPM
  Transport activity of OCT2 (main text: percentage inhibition): 101.6±11.5%
hOCT2; inhibitor 0.3 μM
  DPM (14C-TEA uptake by OCT2): 741.3±35.0 DPM
  Transport activity of OCT2 (main text: percentage inhibition): 75.8±3.6%
hOCT2; inhibitor 1 μM
  DPM (14C-TEA uptake by OCT2): 712.3±115.3 DPM
  Transport activity of OCT2 (main text: percentage inhibition): 72.8±11.8%
hOCT2; inhibitor 3 μM
  DPM (14C-TEA uptake by OCT2): 661.7±93.5 DPM
  Transport activity of OCT2 (main text: percentage inhibition): 67.6±9.6%
hOCT2; inhibitor 10 μM
  DPM (14C-TEA uptake by OCT2): 612.0±28.7 DPM
  Transport activity of OCT2 (main text: percentage inhibition): 62.6±2.9%
hOCT2; inhibitor 30 μM
  DPM (14C-TEA uptake by OCT2): 578.0±29.5 DPM
hOAT3; inhibitor 0.1 μM
  DPM (3H-ES uptake by OAT3): 7893.7±359.2 DPM
  Transport activity of OAT3 (main text: percentage inhibition): 99.5±4.5%
hOAT3; inhibitor 0.3 μM
  DPM (3H-ES uptake by OAT3): 7623.7±652.1 DPM
  Transport activity of OAT3 (main text: percentage inhibition): 96.1±8.2%
hOAT3; inhibitor 1 μM
  DPM (3H-ES uptake by OAT3): 7285.3±273.2 DPM
  Transport activity of OAT3 (main text: percentage inhibition): 91.8±3.4%
hOAT3; inhibitor 3 μM
  DPM (3H-ES uptake by OAT3): 7192.7±157.6 DPM
  Transport activity of OAT3 (main text: percentage inhibition): 90.6±2.0%
hOAT3; inhibitor 10 μM
  DPM (3H-ES uptake by OAT3): 4919.0±360.3 DPM
  Transport activity of OAT3 (main text: percentage inhibition): 62.0±4.5%
hOAT3; inhibitor 30 μM
  DPM (3H-ES uptake by OAT3): 4541.3±532.8 DPM
